# Results as given in paper PMC11790914, “Chemogenomics for steroid hormone receptors (NR3)” (Communications Chemistry, 2025).
# Values joined by “and” are separate entries in the source; they are usually repeats but may differ in a detail not shown here. Equal values may be shown once.
# Experiments:
# [1] = tested on: NF-κB activity in HEK293 NF-κB reporter cells; assay: NF-kB activity assay (GFP reporter, ionomycin/PMA); format: cell-based; conditions: for Mean NFκB response: n=3; for NF-κB activity (inflammatory response to ionomycin/PMA): HEK293 NF-κB reporter cells, compounds at recommended concentrations, imaged over 24 h, n = 3
# Method in brief: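 HEK293 NF-κB GFP reporter cells given compound in 0.1% DMSO for 4 h, then stimulated with ionomycin 100 ng/mL plus PMA 10 ng/mL. Imaged every 90 min over 24 h; GFP-positive cell count normalized to confluence, three independent biological replicates.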
# [2] = tested on: HEK293T cells; assay: Cytotoxicity: necrosis induction (red fluorescent dye for permeable plasma membranes); format: cell-based; conditions: 1 µM, 24 h, necrotic cell count normalized to 0.1% DMSO, single replicates;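 also: compounds applied in DMEM high glucose with 0.1% FCS and 0.1% DMSO, necrotic HEK293T cells counted by red staining of cells whose plasma membranes had become permeable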
# [3] = tested on: HEK293T cells; assay: Cytotoxicity: apoptosis induction (caspase-3/7 DEVD fluorogenic DNA dye); conditions: HEK293T, 24 h; for Apoptosis induction [AI]: 1 µM, apoptotic cell count normalized to 0.1% DMSO, single replicates
# [4] = biological target: T1, BRPF1 (Homo sapiens, UniProt P55201); assay: Liability panel screening by DSF: BRPF1; format: binding; conditions: DSF, 20 µM, n=2; read-out: Mean ΔTM BRPF1
# T1 construct: This panel comprised ten highly ligandable kinases and bromodomains; made in house
# T1 sequence (P55201 628-732 limits assumed): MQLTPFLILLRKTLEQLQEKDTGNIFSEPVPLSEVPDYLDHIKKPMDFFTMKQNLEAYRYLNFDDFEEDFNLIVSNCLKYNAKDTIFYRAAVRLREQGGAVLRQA
# Method in brief: (§1)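 Thermal shift: in-house recombinant protein at 2 µM in 10 mM HEPES pH 7.5 with 500 mM NaCl, SYPRO Orange 1:1000, heated at 3 °C/min to 85 °C in technical duplicates. Tm is the Boltzmann inflection point, reported as ∆Tm in K.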
# [5] = biological target: T2, MAPK1 (Homo sapiens, UniProt P28482); assay: Liability panel screening by DSF: MAPK1; format: binding; conditions: DSF, 20 µM, n=2; read-out: Mean ΔTM MAPK1
# T2 construct: made in house
# Method in brief: as §1
# [6] = tested on: Gal4-VP16; format: cell-based; conditions: 1 µM; vs. DMSO ctrl; single replicates n=1-3
# [7] = biological target: T3, CDK2 (Homo sapiens, UniProt P24941); assay: Liability panel screening by DSF: CDK2; format: binding; conditions: DSF, 20 µM, n=2; read-out: Mean ΔTM CDK2
# T3 construct: made in house
# Method in brief: as §1
# [8] = biological target: T4, BRD4 (Homo sapiens, UniProt O60885); assay: Liability panel screening by DSF: BRD4; format: binding; conditions: DSF, 20 µM, n=2; read-out: Mean ΔTM BRD4
# T4 construct: This panel comprised ten highly ligandable kinases and bromodomains; made in house
# Method in brief: as §1
# [9] = tested on: HEK293T cells; assay: Cytotoxicity: metabolic activity (WST-8 / CCK-8 assay); conditions: 1 µM; HEK293T, 24 h; WST-8; normalized to 0.1% DMSO; single replicates
# [10] = biological target: T5, GSK3B (Homo sapiens, UniProt P49841); assay: Liability panel screening by DSF: GSK3B; format: binding; conditions: DSF, 20 µM, n=2; read-out: Mean ΔTM GSK3B
# T5 construct: made in house
# [11] = biological target: T6, ABL1 (Homo sapiens, UniProt P00519); assay: Liability panel screening by DSF: ABL1; format: binding; conditions: DSF, 20 µM, n=2; read-out: Mean ΔTM ABL1
# T6 construct: made in house
# Method in brief: as §1
# [12] = tested on: HEK293T cells; assay: Cytotoxicity: growth-rate (change in confluence over 24 h); conditions: 1 µM, normalized to 0.1% DMSO control, single replicates (n=1...)
# [13] = biological target: T7, TRIM24 (Homo sapiens, UniProt O15164); assay: Liability panel screening by DSF: TRIM24; format: binding; conditions: DSF, 20 µM, n=2; read-out: Mean ΔTM TRIM24
# T7 construct: This panel comprised ten highly ligandable kinases and bromodomains; made in house
# T7 sequence (O15164 899-1004 limits assumed): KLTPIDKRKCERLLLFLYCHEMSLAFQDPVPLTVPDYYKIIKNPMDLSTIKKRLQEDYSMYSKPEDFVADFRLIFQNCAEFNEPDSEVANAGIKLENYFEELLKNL
# Method in brief: as §1
# [14] = biological target: T8, FGFR3 (Homo sapiens, UniProt P22607); assay: Liability panel screening by DSF: FGFR3; format: binding; conditions: DSF, 20 µM, n=2; read-out: Mean ΔTM FGFR3
# T8 construct: made in house
# Method in brief: as §1
# [15] = tested on: ATF6 activity in Hela ATF6 reporter cells; assay: Endoplasmic reticulum stress assay (ATF6 Renilla luciferase reporter, tunicamycin); format: cell-based; conditions: for activity at 1 µM: Homo sapiens, HeLa, single replicates n=1 to n=5, read-out: ER stress [rel. ATF6 activity]
# Method in brief: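 HeLa ATF6 Renilla reporter cells were pretreated 4 h with compounds in 0.1% DMSO, then stimulated with tunicamycin (100 ng/mL) for 18 h. Renilla luminescence (DualGlo) was normalized to 0.1% DMSO control; five independent experiments.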
# [16] = biological target: T9, CSNK1D (Homo sapiens, UniProt P48730); assay: Liability panel screening by DSF: CSNK1D; format: binding; conditions: DSF, 20 µM, n=2; read-out: Mean ΔTM CSNK1D
# T9 construct: made in house
# Method in brief: as §1
# T5 sequence (P49841 whole entry, species assumed): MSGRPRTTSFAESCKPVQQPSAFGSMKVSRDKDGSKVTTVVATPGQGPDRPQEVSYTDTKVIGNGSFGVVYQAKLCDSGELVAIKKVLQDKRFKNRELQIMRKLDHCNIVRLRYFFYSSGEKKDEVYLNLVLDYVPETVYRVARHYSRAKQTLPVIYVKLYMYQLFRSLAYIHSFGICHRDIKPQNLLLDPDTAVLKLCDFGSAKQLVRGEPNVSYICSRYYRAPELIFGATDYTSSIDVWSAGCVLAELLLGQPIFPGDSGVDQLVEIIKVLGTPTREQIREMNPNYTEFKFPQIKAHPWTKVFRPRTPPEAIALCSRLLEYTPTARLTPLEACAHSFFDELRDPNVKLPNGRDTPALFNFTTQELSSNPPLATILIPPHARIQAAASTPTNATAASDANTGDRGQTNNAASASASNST
# T9 sequence (P48730 whole entry, species assumed): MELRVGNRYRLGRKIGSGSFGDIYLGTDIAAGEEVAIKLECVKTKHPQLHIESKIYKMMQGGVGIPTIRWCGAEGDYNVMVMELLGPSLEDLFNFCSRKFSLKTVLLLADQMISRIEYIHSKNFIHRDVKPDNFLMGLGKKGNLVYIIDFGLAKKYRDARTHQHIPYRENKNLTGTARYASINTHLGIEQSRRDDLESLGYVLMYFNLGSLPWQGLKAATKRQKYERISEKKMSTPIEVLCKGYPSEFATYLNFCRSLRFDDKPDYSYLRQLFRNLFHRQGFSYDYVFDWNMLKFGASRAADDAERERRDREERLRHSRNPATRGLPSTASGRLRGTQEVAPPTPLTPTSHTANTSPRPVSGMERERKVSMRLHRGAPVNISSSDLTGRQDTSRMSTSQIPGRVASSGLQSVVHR
# T2 sequence (P28482 whole entry, species assumed): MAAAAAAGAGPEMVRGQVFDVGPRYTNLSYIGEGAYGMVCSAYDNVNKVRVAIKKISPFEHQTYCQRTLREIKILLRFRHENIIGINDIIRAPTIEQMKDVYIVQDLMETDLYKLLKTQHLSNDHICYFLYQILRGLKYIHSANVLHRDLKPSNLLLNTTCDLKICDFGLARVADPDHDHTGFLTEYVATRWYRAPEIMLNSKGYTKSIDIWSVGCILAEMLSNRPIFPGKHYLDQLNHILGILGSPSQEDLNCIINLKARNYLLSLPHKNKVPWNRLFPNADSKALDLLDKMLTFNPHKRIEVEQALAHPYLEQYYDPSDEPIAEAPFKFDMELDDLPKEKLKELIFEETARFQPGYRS
# T8 sequence (P22607 23-806, species assumed): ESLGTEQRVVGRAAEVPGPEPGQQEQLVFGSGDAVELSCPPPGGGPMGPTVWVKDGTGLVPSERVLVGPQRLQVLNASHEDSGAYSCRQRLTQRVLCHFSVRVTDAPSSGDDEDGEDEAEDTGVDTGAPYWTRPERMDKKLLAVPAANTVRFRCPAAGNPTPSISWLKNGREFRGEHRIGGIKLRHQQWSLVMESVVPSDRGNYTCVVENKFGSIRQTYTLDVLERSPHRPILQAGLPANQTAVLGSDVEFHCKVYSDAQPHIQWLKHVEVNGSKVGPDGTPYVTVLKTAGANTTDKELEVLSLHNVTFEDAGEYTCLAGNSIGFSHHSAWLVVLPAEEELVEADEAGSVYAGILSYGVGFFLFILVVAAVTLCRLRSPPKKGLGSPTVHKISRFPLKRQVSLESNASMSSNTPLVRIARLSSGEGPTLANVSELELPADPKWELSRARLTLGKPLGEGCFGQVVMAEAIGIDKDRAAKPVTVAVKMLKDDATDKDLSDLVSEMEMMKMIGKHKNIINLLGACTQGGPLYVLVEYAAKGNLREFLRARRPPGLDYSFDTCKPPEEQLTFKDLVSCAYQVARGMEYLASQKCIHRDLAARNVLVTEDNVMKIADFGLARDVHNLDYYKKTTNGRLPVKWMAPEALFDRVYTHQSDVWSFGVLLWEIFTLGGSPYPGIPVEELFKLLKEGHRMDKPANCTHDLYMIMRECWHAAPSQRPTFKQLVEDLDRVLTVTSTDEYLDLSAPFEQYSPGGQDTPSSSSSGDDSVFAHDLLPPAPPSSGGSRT
# T6 sequence (P00519 whole entry, species assumed): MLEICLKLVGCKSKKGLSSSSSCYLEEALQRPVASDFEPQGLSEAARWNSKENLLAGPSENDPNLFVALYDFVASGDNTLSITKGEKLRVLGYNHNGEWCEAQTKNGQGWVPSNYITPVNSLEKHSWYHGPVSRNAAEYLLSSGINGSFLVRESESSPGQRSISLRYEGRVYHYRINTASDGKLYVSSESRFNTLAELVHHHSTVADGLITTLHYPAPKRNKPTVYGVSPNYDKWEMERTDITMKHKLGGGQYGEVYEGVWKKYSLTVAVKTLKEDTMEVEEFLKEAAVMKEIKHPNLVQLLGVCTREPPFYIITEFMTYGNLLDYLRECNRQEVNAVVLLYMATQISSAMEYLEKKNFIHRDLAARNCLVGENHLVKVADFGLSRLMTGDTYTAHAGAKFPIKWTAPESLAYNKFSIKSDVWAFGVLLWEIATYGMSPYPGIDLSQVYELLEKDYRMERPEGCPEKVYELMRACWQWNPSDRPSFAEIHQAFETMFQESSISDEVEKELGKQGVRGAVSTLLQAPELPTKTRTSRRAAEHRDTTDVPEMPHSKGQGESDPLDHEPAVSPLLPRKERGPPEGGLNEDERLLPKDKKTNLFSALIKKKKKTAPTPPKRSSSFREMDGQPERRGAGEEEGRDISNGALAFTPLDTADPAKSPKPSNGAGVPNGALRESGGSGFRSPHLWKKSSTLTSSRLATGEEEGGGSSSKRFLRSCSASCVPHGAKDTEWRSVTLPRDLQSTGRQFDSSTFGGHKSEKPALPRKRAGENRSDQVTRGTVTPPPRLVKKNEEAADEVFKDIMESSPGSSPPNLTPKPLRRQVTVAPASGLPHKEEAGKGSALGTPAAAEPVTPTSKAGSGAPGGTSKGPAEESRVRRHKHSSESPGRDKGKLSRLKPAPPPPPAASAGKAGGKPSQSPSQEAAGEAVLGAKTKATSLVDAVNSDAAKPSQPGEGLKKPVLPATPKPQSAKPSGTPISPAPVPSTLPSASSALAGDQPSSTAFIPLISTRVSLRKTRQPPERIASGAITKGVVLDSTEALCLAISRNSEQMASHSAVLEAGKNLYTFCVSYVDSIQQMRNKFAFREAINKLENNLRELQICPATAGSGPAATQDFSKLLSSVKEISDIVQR
Structure (SMILES),"Mean NFκB response ([1]; 1 µM, 1,5 h)","Mean NFκB response ([1]; 1 µM, 4,5 h)","Mean NFκB response ([1]; 1 µM, 7,5 h)","Mean NFκB response ([1]; 1 µM, 10,5 h)","Mean NFκB response ([1]; 1 µM, 13,5 h)","Mean NFκB response ([1]; 1 µM, 16,6 h)","Mean NFκB response ([1]; 1 µM, 19,5 h)","Mean NFκB response ([1]; 1 µM, 22,5 h)","Mean NFκB response ([1]; 1 µM, 3 h)","Mean NFκB response ([1]; 1 µM, 6 h)","Mean NFκB response ([1]; 1 µM, 9 h)","Mean NFκB response ([1]; 1 µM, 12 h)","Mean NFκB response ([1]; 1 µM, 15 h)","Mean NFκB response ([1]; 1 µM, 18 h)","Mean NFκB response ([1]; 1 µM, 21 h)","Mean NFκB response ([1]; 1 µM, 24 h)",NF-κB activity (inflammatory response to ionomycin/PMA) [1],Necrosis induction [NI] [2],Apoptosis induction [AI] [3],ΔTm at 20 µM [4] [°C],further results
Cc1ccc2c(NC[C@](O)(CC(C)(C)c3cc(F)cc4c3OCC4)C(F)(F)F)cccc2n1 [Mapracorat],2171.23 GFP+-cells/confluence ∙ 1000,3001.35 GFP+-cells/confluence ∙ 1000,6252.60 GFP+-cells/confluence ∙ 1000,12057.95 GFP+-cells/confluence ∙ 1000,15815.67 GFP+-cells/confluence ∙ 1000,19330.00 GFP+-cells/confluence ∙ 1000,21866.67 GFP+-cells/confluence ∙ 1000,23846.67 GFP+-cells/confluence ∙ 1000,2434.19 GFP+-cells/confluence ∙ 1000,4081.73 GFP+-cells/confluence ∙ 1000,9170.03 GFP+-cells/confluence ∙ 1000,13883.00 GFP+-cells/confluence ∙ 1000,17560.00 GFP+-cells/confluence ∙ 1000,20616.67 GFP+-cells/confluence ∙ 1000,23216.67 GFP+-cells/confluence ∙ 1000,25073.33 GFP+-cells/confluence ∙ 1000,consistently delayed and strongly diminished NF-κB activity,1.18 and 1.03 and 0.88 and 0.99,-0.37 and -0.27 and 0.87 and 1.32 and 1.12 and 1.57,0.63,"ΔTm at 20 µM [5]: -0.47 °C; VP16 control [fold reporter gene activity] [6]: 0.84 fold reporter gene activity and 0.88 fold reporter gene activity and 1.01 fold reporter gene activity; ΔTm at 20 µM [7]: -0.17 °C; ΔTm at 20 µM [8]: -0.11 °C; Metabolic activity [MA] [9]: 1.04 and 1.02 (2×) and 0.95 and 0.98 (2×) and 0.94 and 1.03; ΔTm at 20 µM [10]: -0.25 °C; ΔTm at 20 µM [11]: 0.24 °C; Growth rate [GR] [12]: 0.90 and 6.11 and 0.92 and 1.17 and 0.84 and 0.73 and 1.07 and 1.61 and 3.67 and 14.17; ΔTm at 20 µM [13]: -0.84 °C; ΔTm at 20 µM [14]: -1.28 °C; ATF6 activity (tunicamycin-induced endoplasmic reticulum stress) ([15]; Hela ATF6 reporter cells, tunicamycin 100 ng/mL, 18 h, compounds at recommended concentrations, n = 5): Consistently weaker ATF6 activity; activity at 1 µM [15]: 83%; ΔTm at 20 µM [16]: -0.78 °C"
C[C@@H]1Cc2c([nH]c3ccccc23)[C@@H](c2c(F)cc(/C=C/C(=O)O)cc2F)N1CC(C)(C)F [AZD9496],3183.32 GFP+-cells/confluence ∙ 1000,3743.71 GFP+-cells/confluence ∙ 1000,6968.05 GFP+-cells/confluence ∙ 1000,12962.04 GFP+-cells/confluence ∙ 1000,18218.90 GFP+-cells/confluence ∙ 1000,22070.92 GFP+-cells/confluence ∙ 1000,24828.05 GFP+-cells/confluence ∙ 1000,27011.69 GFP+-cells/confluence ∙ 1000,3319.11 GFP+-cells/confluence ∙ 1000,4897.81 GFP+-cells/confluence ∙ 1000,10141.67 GFP+-cells/confluence ∙ 1000,15818.86 GFP+-cells/confluence ∙ 1000,20214.01 GFP+-cells/confluence ∙ 1000,23720.26 GFP+-cells/confluence ∙ 1000,26076.44 GFP+-cells/confluence ∙ 1000,27738.19 GFP+-cells/confluence ∙ 1000,reducing the inflammatory response,1.09 and 0.96 and 0.78 and 2.03,0.64 and 1.56 and 0.90 and 1.15 and 1.90 and 3.05,-4.53,"apoptosis induction ([3]; budesonide (3 µM), others at tested concentration): slight apoptosis induction; ΔTm at 20 µM [5]: 0.55 °C; VP16 control [fold reporter gene activity] [6]: 1.31 fold reporter gene activity and 1.10 fold reporter gene activity and 1.59 fold reporter gene activity; ΔTm at 20 µM [7]: -0.07 °C; ΔTm at 20 µM [8]: 0.36 °C; Metabolic activity [MA] [9]: 1.04 (3×) and 1.02 and 0.97 and 0.99 and 1.00 (2×); ΔTm at 20 µM [10]: 0 °C; ΔTm at 20 µM [11]: -0.24 °C; Growth rate [GR] [12]: 1.04 and 0.96 and 0.95 and 1.23 and 0.78 and 0.74 (3×) and 1.43 and 4.43; ΔTm at 20 µM [13]: -0.62 °C; ΔTm at 20 µM [14]: 0.58 °C; activity at 1 µM [15]: 101%; ΔTm at 20 µM [16]: 0.64 °C"
